Measured values from patent US6593480B2 (Abbott Laboratories, priority 1999, dated 2003).

Experiments:
[1] = molecular target: T1, Human glucocorticoid receptors (Homo sapiens, UniProt P04150); test: Radioligand filter binding assay, displacement of 3(H)-dexamethasone from human glucocorticoid receptor cytosol; settings: 1.7 μM test compound, inhibition of 3(H)-dex binding to hGR
T1 construct: made in house; host or cells: Sf9 insect cells, recombinant baculovirus (BAC-TO-BAC)
T1 sequence (P04150 1-777): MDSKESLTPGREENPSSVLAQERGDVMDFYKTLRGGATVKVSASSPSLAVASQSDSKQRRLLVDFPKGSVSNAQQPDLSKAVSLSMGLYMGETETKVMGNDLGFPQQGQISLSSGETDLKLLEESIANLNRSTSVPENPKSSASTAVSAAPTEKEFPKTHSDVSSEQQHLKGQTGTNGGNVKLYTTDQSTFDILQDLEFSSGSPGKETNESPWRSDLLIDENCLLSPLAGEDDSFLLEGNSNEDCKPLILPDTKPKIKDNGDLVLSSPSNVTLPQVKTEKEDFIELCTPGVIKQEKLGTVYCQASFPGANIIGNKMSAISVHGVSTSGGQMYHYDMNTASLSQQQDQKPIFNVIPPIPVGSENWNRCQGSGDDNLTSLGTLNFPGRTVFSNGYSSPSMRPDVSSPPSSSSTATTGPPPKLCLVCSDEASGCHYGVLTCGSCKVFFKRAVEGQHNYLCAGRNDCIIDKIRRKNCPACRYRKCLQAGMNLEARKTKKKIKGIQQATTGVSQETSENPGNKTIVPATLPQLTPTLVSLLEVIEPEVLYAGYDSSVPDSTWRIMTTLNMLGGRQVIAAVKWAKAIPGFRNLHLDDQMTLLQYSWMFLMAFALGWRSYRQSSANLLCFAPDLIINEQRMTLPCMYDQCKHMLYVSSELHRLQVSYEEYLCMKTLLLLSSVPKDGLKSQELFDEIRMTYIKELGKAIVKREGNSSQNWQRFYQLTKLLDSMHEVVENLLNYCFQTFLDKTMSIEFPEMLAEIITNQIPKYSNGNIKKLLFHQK
Experimental: Dexamethasone hereafter referred to as dex was purchased from SIGMA. […] Human glucocorticoid receptors were extracted from Sf9 cells infected with a recombinant baculovirus transfer vector containing the cloned hGR genes. […] The recombinant baculovi, uses expressing hGR were amplified and used to infect Sf9 cells. Infected cells were harvested 48 hrs post infection. […] The concentration of hGR in the extract was measured as specific ^3(H)-dex binding with the G25-assay as described in J. Steroid Biochem. Molec. […] The extract was aliquoted and stored at −70° C.
The filter binding assay: Dilution series of the test compounds and dex as reference were made from 10 mM (1 mM dex) stock solutions in DMSO. 10 μl of the dilutions was added in duplicates to the wells. The cell extracts were diluted 10 fold in EPMo +MTG buffer (1 mM EDTA, HPO4 20 mM (pH8), 6 mM MTG). […] 110 μl of the diluted ^3(H)-dex were added to the wells. The final concentration of hGR in the experiment was estimated to 1 nM. All preparations were made in ambient temperature (20-25° C.) on ice and with +4° C. temperated buffers. The plates were incubated over night at +4° C. (15-20hrs).
The incubation was stopped by filtration through GF/B filter on the Tomtec Cellharvester. The filtration on the Tomtec Cellharvester was programmed as follows: 1) Preparation before filtration with EP buffer (1 mM EDTA 20 mM HPO4 (pH8)) 2×(Wash/Asp 0.6 sec., Asp 0.5 sec.); 2) Prewet of GF/B filter with EP+PEI buffer (EP buffer, 0.3% Polyesthylenimine) (Asp 0.8 sec.). 3) Filtration/harvesting of the 96-well incubation plate 3×(Wash/Asp 0.6 sec., Asp 0.5 sec.). The GF/B filter was dried for at least 1 hr at 65° C. A MeltiLex scintillation wax was melted onto the filter with the Microsealer. The filter was placed in a samplebag, which was thereafter trimmed with scissors to fit the filter cassette. The cassette were placed in the Microbeta and measured for 1 min/position, returning ccpm (conrected counts per minute).
The Microbeta-instrument generates the mean cpm (counts per minute) value/minute and corrects for individual variations between the detectors thus generating corrected cpm values.

[2] = molecular target: T2, progesterone receptor (PR) (Homo sapiens, UniProt P06401); test: Radioligand binding assay with progesterone receptor cytosol (similar protocol)
T2 sequence (P06401 1-933): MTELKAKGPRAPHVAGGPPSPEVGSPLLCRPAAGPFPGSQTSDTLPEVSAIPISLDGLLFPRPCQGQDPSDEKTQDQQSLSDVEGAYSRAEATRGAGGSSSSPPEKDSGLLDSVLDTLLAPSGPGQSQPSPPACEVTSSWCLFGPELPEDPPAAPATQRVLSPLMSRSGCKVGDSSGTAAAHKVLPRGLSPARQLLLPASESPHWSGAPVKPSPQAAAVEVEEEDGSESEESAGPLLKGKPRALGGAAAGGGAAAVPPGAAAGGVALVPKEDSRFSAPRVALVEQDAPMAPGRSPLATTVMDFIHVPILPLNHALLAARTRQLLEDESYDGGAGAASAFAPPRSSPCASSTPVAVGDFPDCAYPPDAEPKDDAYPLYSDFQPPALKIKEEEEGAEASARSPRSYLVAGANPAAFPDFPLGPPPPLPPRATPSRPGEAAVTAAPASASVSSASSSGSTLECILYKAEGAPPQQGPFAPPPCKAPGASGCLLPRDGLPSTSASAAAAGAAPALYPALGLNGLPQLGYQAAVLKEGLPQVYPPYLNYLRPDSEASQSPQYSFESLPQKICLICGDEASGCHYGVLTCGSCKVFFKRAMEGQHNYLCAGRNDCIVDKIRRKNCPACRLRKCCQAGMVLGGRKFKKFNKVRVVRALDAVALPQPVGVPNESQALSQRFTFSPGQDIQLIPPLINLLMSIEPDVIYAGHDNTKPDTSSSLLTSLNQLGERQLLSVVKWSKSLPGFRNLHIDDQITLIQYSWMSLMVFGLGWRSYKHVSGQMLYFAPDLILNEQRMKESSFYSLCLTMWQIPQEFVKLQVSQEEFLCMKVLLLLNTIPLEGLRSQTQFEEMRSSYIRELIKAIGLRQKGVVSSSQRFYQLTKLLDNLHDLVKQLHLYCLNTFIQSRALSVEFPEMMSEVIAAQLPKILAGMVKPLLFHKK
From the text: Methods for Radioligand Binding Studies with Human Glucocorticoid and Progesterone Receptor Cytosol
A similar protocol was employed to measure affinity of the compounds of the present invention for progesterone receptor (PR).

[3] = system: obese diabetic db/db transgenic mice; settings: cited from earlier work

| Molecule | melting point | inhibition at 1.7 µM ([1]; read-out: GR BINDING (% Inhibition @ 1.7 μM)) | IC50 [2] | mRNA levels of PEPCK and glucose-6-phosphate in the liver ([3]; liver, db/db mice) | reduction of plasma glucose levels ([3]; obese diabetic db/db transgenic mice) | GR BINDING (% Inhibition @ 1.7 μM) [1] |
| --- | --- | --- | --- | --- | --- | --- |
| COc1cccc2c1-c1ccc(NS(C)(=O)=O)c(C)c1C(c1cccc(C(F)(F)F)c1)O2 (stereo not shown) [Example 1, (1-methoxy-6-(3-trifluoromethyl)phenyl-7-methyl-6H-dibenzo(b,d)pyran-8-yl)methanesulfonamide] | 217 to 218 °C | 82.1% | 5630 nM |  |  |  |
| CC#C[C@]1(O)CC[C@H]2[C@@H]3CCC4=CC(=O)CCC4=C3[C@@H](c3ccc(N(C)C)cc3)C[C@@]21C [mifepristone] |  |  |  | reduces | 50% |  |
| (1-methoxy-6-(4-methylphenyl)-6H-dibenzo(b,d)pyran-8-yl)methanesulfonamide [Example 76] |  |  | 670 nM |  |  | 89.7% |
| (1-methoxy-6-(5-bromothien-2-yl)-6H-dibenzo(b,d)pyran-8-yl)methanesulfonamide [Example 62] |  |  | 172 nM |  |  | 94.5% |
| (1-methoxy-6-(5-chloropent-1-yl)-6H-dibenzo(b,d)pyran-8-yl)methanesulfonamide [Example 75] |  |  | 1850 nM |  |  | 90.1% |
| (1-methoxy-6-(5-chlorothien-2-yl)-6H-dibenzo(b,d)pyran-8-yl)methanesulfonamide [Example 58] |  |  | 524 nM |  |  | 94.6% |
| (1-methoxy-6-(inden-3-yl)-6H-dibenzo(b,d)pyran-8-yl)methanesulfonamide [Example 74] |  |  | 970 nM |  |  | 86.7% |
| (1-methoxy-6-allyl-6H-dibenzo(b,d)pyran-8-yl)methanesulfonamide [Example 53] |  |  | 1420 nM |  |  | 92.9% |
| (1-methoxy-6-cyclohexyl-6H-dibenzo(b,d)pyran-8-yl)methanesulfonamide [Example 55] |  |  | 1000 nM |  |  | 93.4% |
